Measured values taken from patent US20250195521A1 (Revolution Medicines, Inc., priority 2020, published 2025).
Read-outs that look alike come from different tables or passages of the source.

Legend:
[1] = target: KRAS G12V (Homo sapiens (Human), UniProt P01116+P62937, G12V); test: Ras-Raf disruption/FRET/MOA assay, KRAS G12V; type: biochemical
Excerpt: (§1) Disruption of B-Raf Ras-Binding Domain (BRAF^RBD) Interaction with K-Ras by Compounds of the Invention (Also Called a FRET Assay or an MOA Assay)
(§2) Note—The following protocol describes a procedure for monitoring disruption of K-Ras G12C (GMP-PNP) binding to BRAF^RBD by a compound of the invention. This protocol may also be executed substituting other Ras proteins or nucleotides, such as K-Ras G12D and K-Ras G13D.
(§3) The purpose of this biochemical assay was to measure the ability of test compounds to facilitate ternary complex formation between a nucleotide-loaded K-Ras isoform and Cyclophilin A; the resulting ternary complex disrupts binding to a BRAF^RBD construct, inhibiting K-Ras signaling through a RAF effector. Data is reported as IC50 values.
(§4) In assay buffer containing 25 mM HEPES pH 7.3, 0.002% Tween20, 0.1% BSA, 100 mM NaCl and 5 mM MgCl2, tagless Cyclophilin A, His6-K-Ras-GMPPNP, and GST-BRAF^RBD were combined in a 384-well assay plate at final concentrations of 25 μM, 12.5 nM, and 50 nM, respectively. Compound was present in plate wells as a 10-point 3-fold dilution series starting at a final concentration of 30 μM. After incubation at 25° C. for 3 hours, a mixture of anti-His Eu—W1024 and anti-GST allophycocyanin was then added to assay sample wells at final concentrations of 10 nM and 50 nM, respectively, and the reaction incubated for an additional 1.5 hours. […] Compounds that facilitate disruption of a K-Ras: RAF complex were identified as those eliciting a decrease in the TR-FRET ratio relative to DMSO control wells.

[2] = target: KRAS G13D (Homo sapiens (Human), UniProt P01116+P62937, G13D); test: Ras-Raf disruption/FRET/MOA assay, KRAS G13D; type: biochemical; details: read-out: KRAS G13D FRET IC50
Chain of KRAS G13D (P01116 other isoform, or with tags, fused parts or gaps G13D): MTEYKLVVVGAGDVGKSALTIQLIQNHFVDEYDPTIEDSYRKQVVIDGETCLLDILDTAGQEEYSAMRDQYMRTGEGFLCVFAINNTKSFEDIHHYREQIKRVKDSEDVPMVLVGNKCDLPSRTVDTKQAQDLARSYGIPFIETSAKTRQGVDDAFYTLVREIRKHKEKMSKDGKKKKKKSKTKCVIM
Chain of KRAS G13D (P62937 whole entry): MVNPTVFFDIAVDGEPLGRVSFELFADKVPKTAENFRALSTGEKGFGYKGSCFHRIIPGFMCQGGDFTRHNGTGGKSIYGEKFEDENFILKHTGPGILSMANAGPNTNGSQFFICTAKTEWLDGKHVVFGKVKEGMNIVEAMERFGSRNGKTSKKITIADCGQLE
Excerpt: as §1, §2, §3, §4

[3] = target: KRAS G12C (Homo sapiens (Human), UniProt P01116+P62937, G12C); test: Ras-Raf disruption/FRET/MOA assay, KRAS G12C; type: biochemical; details: read-out: KRAS G12C FRET data IC50
Chain of KRAS G12C (P01116-2 other isoform, or with tags, fused parts or gaps G12C): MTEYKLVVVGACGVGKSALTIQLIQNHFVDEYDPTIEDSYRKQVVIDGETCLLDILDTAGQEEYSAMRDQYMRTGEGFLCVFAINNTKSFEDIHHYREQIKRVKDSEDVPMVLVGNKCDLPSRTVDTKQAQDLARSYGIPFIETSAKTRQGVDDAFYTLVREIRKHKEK
Chain of KRAS G12C (P62937 whole entry): as the sequence (P62937 whole entry) above
Excerpt: as §1, §2, §3, §4

[4] = target: NRAS G12C (Homo sapiens (Human), UniProt P01111+P62937, G12C); test: Ras-Raf disruption/FRET/MOA assay, NRAS G12C; type: biochemical; details: read-out: NRAS G12C FRET data IC50
Chain of NRAS G12C (P01111 whole entry G12C): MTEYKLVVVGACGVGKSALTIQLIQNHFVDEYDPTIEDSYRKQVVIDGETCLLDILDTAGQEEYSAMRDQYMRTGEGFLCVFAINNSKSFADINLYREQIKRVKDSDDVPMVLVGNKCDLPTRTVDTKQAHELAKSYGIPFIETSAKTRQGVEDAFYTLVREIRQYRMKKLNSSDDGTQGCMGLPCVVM
Chain of NRAS G12C (P62937 whole entry): as the sequence (P62937 whole entry) above
Excerpt: as §1, §2, §3, §4

[5] = target: KRAS WT (Homo sapiens (Human), UniProt P01116+P62937); test: Ras-Raf disruption/FRET/MOA assay, KRAS WT; type: biochemical; details: read-out: KRAS WT FRET IC50
Chain of KRAS WT (P01116 other isoform, or with tags, fused parts or gaps): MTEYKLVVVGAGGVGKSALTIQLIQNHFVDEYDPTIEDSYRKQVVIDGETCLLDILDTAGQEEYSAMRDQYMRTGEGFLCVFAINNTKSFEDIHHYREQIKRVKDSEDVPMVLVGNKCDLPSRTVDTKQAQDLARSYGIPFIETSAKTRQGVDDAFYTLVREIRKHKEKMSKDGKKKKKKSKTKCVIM
Chain of KRAS WT (P62937 whole entry): as the sequence (P62937 whole entry) above
Excerpt: as §1, §2, §3, §4

[6] = target: KRAS G13C (Homo sapiens (Human), UniProt P01116+P62937, G13C); test: Ras-Raf disruption/FRET/MOA assay, KRAS G13C; type: biochemical; details: read-out: KRAS G13C FRET IC50
Chain of KRAS G13C (P01116 other isoform, or with tags, fused parts or gaps G13C): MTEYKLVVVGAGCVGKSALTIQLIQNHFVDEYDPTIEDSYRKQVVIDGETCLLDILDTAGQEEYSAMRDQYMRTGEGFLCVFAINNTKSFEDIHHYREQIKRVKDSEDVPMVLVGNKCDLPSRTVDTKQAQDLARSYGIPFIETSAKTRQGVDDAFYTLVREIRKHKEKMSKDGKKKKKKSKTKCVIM
Chain of KRAS G13C (P62937 whole entry): as the sequence (P62937 whole entry) above
Excerpt: as §1, §2, §3, §4

[7] = target: KRAS G12D (Homo sapiens (Human), UniProt P01116+P62937, G12D); test: Ras-Raf disruption/FRET/MOA assay, KRAS G12D; type: biochemical; details: read-out: KRAS G12D FRET IC50
Chain of KRAS G12D (P01116 other isoform, or with tags, fused parts or gaps G12D): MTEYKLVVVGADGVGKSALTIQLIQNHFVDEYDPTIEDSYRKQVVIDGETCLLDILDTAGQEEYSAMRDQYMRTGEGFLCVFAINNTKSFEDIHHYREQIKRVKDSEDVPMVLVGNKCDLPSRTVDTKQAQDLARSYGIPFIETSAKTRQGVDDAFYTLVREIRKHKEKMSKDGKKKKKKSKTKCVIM
Chain of KRAS G12D (P62937 whole entry): as the sequence (P62937 whole entry) above
Excerpt: as §1, §2, §3, §4

[8] = target: KRAS G12S (Homo sapiens (Human), UniProt P01116+P62937, G12S); test: Ras-Raf disruption/FRET/MOA assay, KRAS G12S; type: biochemical; details: read-out: KRAS G12S FRET IC50
Chain of KRAS G12S (P01116 other isoform, or with tags, fused parts or gaps G12S): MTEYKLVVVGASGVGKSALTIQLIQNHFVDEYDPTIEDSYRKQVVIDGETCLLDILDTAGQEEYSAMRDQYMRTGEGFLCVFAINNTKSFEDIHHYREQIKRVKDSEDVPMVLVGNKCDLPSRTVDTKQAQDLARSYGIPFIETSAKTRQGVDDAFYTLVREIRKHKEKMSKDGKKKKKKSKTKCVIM
Chain of KRAS G12S (P62937 whole entry): as the sequence (P62937 whole entry) above
Excerpt: as §1, §2, §3, §4

[9] = system: NCI-H358 (K-Ras G12C); test: CellTiter-Glo cell viability assay, H358; type: cell-based, human; details: Homo sapiens, NCI-H358, 120 h, read-out: H358 Cell Viability IC50, K-Ras G12C, 5-day treatment
Procedure: Note—The following protocol describes a procedure for monitoring cell viability of K-Ras mutant cancer cell lines in response to a compound of the invention. Other RAS isoforms may be employed, though the number of cells to be seeded will vary based on cell line used.
Test compounds (132.5 nL) were directly dispensed into the assay plates containing cells. […] On day 5, assay plates and their contents were equilibrated to room temperature for approximately 30 minutes. […] Luminescence was measured using the PerkinElmer Enspire. Data were normalized by the following: (Sample signal/Avg. DMSO)*100. The data were fit using a four-parameter logistic fit.

[10] = system: AsPC-1 (K-Ras G12D); test: Potency assay: pERK; type: cell-based, human; details: Homo sapiens, ASPC1, read-out: pERK EC50
In short: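 Cells plated overnight, then exposed 4 h at 37 °C to 10-point 3-fold dilutions of compound, in duplicate. pERK read by AlphaLISA SureFire Ultra p-ERK1/2 lysate assay or by In-Cell Western (pERK antibody, DRAQ5 DNA normalisation). IC50 from 4-parameter sigmoidal fit of signal vs log concentration.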

[11] = system: AsPC-1 (K-Ras G12D); test: CellTiter-Glo cell viability assay, AsPC-1; type: cell-based, human; details: Homo sapiens, ASPC1, 120 h, read-out: AsPC-1 Cell Viability IC50
In short: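 Cells seeded, compound added directly, 5-day exposure. Plates to RT ~30 min, CellTiter-Glo luminescence read. Normalized to DMSO avg (x100); 4-parameter logistic fit.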

Chain of KRAS G12V (P01116 other isoform, or with tags, fused parts or gaps G12V): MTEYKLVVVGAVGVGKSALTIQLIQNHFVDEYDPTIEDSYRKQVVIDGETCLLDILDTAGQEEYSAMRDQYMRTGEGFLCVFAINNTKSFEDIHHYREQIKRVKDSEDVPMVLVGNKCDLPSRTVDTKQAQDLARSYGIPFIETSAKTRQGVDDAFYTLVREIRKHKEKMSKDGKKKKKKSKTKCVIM
Chain of KRAS G12V (P62937 whole entry, the tested form may be a part): as the sequence (P62937 whole entry) above

SMILES | IC50 ([1]; read-out: KRAS G12V FRET IC50) [nM] | IC50 [9] [nM] | EC50 [10] [nM] | IC50 [11] [nM] | other results
CCn1c(-c2cnccc2COC)c2c3cc(ccc31)-c1cc(O)cc(c1)C[C@H](NC(=O)[C@@H](CCNC(=O)NCCCl)C(C)C)C(=O)N1CCC[C@H](N1)C(=O)OCC(C)(C)C2 [Example 26] | 1000 to 10000 |  |  |  | IC50 [2]: 1000 to 10000 nM; IC50 [3]: 1000 to 10000 nM; IC50 [4]: 1000 to 10000 nM; IC50 [5]: 1000 to 10000 nM; IC50 [6]: > 10000 nM; IC50 [7]: > 10000 nM; IC50 [8]: > 10000 nM
CCn1c(-c2cccnc2[C@H](C)OC)c2c3cc(ccc31)-c1cccc(c1)C[C@H](NC(=O)[C@H](C(C)C)N(C)C(=O)CCN=C=NCc1ccccc1OC)C(=O)N1CCC[C@H](N1)C(=O)OCC(C)(C)C2 [Example 73] | 1000 to 10000 |  |  |  | 
CCn1c(-c2cccnc2[C@H](C)OC)c2c3cc(ccc31)-c1cccc(c1)C[C@H](NC(=O)[C@H](C(C)C)N(C)C(=O)[C@H]1CC[C@H](N=C=NCc3ccccc3OC)C1)C(=O)N1CCC[C@H](N1)C(=O)OCC(C)(C)C2 [Example 76] | 1000 to 10000 |  |  |  | 
CCn1c(-c2cccnc2[C@H](C)OC)c2c3cc(ccc31)-c1cccc(c1)C[C@H](NC(=O)[C@H](C(C)C)N(C)C(=O)[C@H]1CC[C@H](N=C=NC(C)(C)C)C1)C(=O)N1CCC[C@H](N1)C(=O)OCC(C)(C)C2 [Example 125] | 1000 to 10000 |  |  |  | 
CCn1c(-c2cccnc2[C@H](C)OC)c2c3cc(ccc31)-c1cc(O)cc(c1)C[C@H](NC(=O)[C@H](C(C)C)N(C)C(=O)CN(C)C(=O)[C@@H]1CN1CC1(C)COC1)C(=O)N1CCC[C@H](N1)C(=O)OCC(C)(C)C2 (stereo partly drawn) [Example 280] |  | < 10 | < 5000 | 1000 to 10000 | 
CCn1c(-c2cccnc2[C@H](C)OC)c2c3cc(ccc31)-c1cc(O)cc(c1)C[C@H](NC(=O)[C@H](C(C)C)N(C)C(=O)CN(C)C(=O)[C@@H]1N[C@H]1C1COC1)C(=O)N1CCC[C@H](N1)C(=O)OCC(C)(C)C2 [Example 283] |  | 10 to 100 | < 5000 | 100 to 1000 | 
CCn1c(-c2cccnc2[C@H](C)OC)c2c3cc(ccc31)-c1cc(O)cc(c1)C[C@H](NC(=O)[C@H](C(C)C)N(C)C(=O)CN(C)C(=O)[C@@H]1N[C@@H]1C1CCC1)C(=O)N1CCC[C@H](N1)C(=O)OCC(C)(C)C2 [Example 287] |  | 10 to 100 | < 5000 | 100 to 1000 | 
CCn1c(-c2cccnc2[C@H](C)OC)c2c3cc(ccc31)-c1cc(O)cc(c1)C[C@H](NC(=O)[C@H](C(C)C)N(C)C(=O)CN(C)C(=O)[C@H]1N[C@H]1C1CCC1)C(=O)N1CCC[C@H](N1)C(=O)OCC(C)(C)C2 [Example 288] |  | 10 to 100 | < 5000 | 100 to 1000 | 
CCn1c(-c2cccnc2[C@H](C)OC)c2c3cc(ccc31)-c1cc(O)cc(c1)C[C@H](NC(=O)[C@H](C1CCCC1)N(C)C(=O)[C@@H](C)N(C)C(=O)[C@@H]1N[C@@H]1C1CC1)C(=O)N1CCC[C@H](N1)C(=O)OCC(C)(C)C2 [Example 327] |  |  |  |  | IC50 [1]: 1000 to 10000 nM
